In ChEMBL document CHEMBL4052762, “Synthesis and biological evaluation of pyrrole-based chalcones as CYP1 enzyme inhibitors, for possible prevention of cancer and overcoming cisplatin resistance” (Bioorg Med Chem Lett, 2017) one finds IC50 data, which are given here for 20 compounds.

The target in experiment [1] is Cytochrome P450 2D6 (Homo sapiens, UniProt P10635). In words: Inhibition of human CYP2D6 bound to yeast microsomal membrane using 7-ethoxy-methyloxy-3-cyanocoumarin as substrate after 10 mins by fluorescence assay. The experiment is classed as ADME.
Experiment [2] concerns the target Cytochrome P450 2C9 (Homo sapiens, UniProt P11712). In words: Inhibition of human CYP2C9 bound to yeast microsomal membrane using 3-cyano-7-ethoxycoumarin as substrate after 10 mins by fluorescence assay. The experiment is classed as ADME.
Experiment [3] addresses T1, Cytochrome P450 1A2 (Homo sapiens, UniProt P05177).
T1 sequence (P05177 whole entry): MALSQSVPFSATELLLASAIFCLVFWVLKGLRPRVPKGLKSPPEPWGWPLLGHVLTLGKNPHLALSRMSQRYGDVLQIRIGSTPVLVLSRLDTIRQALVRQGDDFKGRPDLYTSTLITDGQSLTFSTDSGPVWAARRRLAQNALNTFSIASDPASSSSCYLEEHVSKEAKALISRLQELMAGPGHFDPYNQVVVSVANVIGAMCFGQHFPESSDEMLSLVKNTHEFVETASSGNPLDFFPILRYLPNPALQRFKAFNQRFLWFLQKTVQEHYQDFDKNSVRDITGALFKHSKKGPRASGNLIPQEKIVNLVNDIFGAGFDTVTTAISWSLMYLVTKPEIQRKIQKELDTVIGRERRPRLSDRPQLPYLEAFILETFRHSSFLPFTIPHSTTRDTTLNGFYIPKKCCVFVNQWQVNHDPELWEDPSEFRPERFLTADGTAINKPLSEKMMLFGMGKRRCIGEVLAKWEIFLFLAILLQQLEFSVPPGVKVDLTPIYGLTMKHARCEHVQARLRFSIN
Put plainly: Inhibition of human CYP1A2 bound to yeast microsomal membrane using 3-cyano-7-ethoxycoumarin as substrate after 10 mins by fluorescence assay.

Experiment [4] has as its target Cytochrome P450 2C19 (Homo sapiens, UniProt P33261). In words: Inhibition of human CYP2C19 bound to yeast microsomal membrane using 3-cyano-7-ethoxycoumarin as substrate after 10 mins by fluorescence assay. The experiment is classed as ADME.
Experiment [5] concerns the target Cytochrome P450 3A4 (Homo sapiens, UniProt P08684). Put plainly: Inhibition of human CYP3A4 bound to yeast microsomal membrane using dibenzylfluorescein as substrate after 10 mins by fluorescence assay. Format: ADME.
Experiment [6] concerns the target T2, Cytochrome P450 1A1 (Homo sapiens, UniProt P04798).
T2 sequence (P04798 whole entry): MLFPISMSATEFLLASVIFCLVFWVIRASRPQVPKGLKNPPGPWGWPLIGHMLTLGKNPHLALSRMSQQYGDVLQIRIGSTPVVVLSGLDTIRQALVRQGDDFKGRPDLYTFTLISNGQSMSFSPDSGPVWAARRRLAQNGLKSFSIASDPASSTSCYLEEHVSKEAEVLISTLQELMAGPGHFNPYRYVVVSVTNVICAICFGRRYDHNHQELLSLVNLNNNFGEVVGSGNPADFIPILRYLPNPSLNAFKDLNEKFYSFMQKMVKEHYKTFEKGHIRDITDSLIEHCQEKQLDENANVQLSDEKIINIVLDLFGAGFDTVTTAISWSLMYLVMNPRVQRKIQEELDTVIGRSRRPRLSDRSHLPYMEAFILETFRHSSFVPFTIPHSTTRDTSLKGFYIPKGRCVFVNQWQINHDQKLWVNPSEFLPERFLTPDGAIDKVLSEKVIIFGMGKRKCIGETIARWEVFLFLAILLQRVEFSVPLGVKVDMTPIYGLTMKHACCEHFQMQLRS
Put plainly: Inhibition of human CYP1A1 bound to yeast microsomal membrane using 7-ethoxyresorufin as substrate after 10 mins by fluorescence assay.

The target in experiment [7] is T3, Cytochrome P450 1B1 (Homo sapiens, UniProt Q16678).
T3 sequence (Q16678 whole entry): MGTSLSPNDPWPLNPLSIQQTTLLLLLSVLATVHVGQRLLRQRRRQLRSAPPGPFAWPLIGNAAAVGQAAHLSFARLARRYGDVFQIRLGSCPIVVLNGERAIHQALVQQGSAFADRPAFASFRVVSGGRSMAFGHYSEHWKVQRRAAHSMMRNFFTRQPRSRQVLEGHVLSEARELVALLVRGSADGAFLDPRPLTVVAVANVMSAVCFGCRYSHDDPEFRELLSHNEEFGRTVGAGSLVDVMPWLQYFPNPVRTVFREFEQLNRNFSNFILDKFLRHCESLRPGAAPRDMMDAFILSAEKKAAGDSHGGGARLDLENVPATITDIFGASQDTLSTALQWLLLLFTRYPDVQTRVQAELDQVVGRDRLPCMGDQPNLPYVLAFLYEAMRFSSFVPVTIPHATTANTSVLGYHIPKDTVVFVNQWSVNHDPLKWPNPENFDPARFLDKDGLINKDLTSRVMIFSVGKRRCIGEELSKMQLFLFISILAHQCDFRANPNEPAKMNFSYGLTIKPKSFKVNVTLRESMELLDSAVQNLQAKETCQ
In words: Inhibition of human CYP1B1 bound to yeast microsomal membrane using 7-ethoxyresorufin as substrate after 10 mins by fluorescence assay.

As a reminder, the IC50 is the concentration at which inhibition is half-maximal.

Sequence of Cytochrome P450 2D6 (P10635 whole entry): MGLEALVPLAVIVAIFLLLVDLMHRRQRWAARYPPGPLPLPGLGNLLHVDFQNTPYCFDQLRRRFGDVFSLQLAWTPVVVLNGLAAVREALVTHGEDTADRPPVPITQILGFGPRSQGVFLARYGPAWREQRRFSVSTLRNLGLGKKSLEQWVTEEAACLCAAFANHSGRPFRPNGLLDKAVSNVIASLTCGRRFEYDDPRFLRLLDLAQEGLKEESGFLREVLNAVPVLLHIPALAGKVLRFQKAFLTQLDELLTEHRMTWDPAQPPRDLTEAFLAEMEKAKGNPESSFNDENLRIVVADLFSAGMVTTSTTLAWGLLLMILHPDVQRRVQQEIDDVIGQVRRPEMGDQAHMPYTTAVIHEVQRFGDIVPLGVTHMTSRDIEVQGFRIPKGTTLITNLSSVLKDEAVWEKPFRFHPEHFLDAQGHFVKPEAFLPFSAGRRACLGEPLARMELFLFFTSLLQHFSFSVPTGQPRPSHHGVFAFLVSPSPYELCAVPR
Sequence of Cytochrome P450 3A4 (P08684 whole entry): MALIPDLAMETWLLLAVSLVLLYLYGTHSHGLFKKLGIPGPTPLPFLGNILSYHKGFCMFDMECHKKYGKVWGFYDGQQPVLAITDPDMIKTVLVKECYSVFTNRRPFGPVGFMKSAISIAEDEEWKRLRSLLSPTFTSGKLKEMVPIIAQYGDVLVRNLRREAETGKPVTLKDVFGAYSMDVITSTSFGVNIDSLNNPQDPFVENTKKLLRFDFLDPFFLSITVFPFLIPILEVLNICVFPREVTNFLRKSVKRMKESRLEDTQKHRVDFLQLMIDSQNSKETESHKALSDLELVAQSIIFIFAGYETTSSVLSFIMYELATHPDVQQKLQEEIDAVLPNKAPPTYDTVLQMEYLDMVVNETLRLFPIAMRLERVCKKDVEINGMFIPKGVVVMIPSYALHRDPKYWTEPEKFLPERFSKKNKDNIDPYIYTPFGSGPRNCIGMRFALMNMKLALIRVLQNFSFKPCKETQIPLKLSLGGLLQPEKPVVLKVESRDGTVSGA
Sequence of Cytochrome P450 2C19 (P33261 whole entry): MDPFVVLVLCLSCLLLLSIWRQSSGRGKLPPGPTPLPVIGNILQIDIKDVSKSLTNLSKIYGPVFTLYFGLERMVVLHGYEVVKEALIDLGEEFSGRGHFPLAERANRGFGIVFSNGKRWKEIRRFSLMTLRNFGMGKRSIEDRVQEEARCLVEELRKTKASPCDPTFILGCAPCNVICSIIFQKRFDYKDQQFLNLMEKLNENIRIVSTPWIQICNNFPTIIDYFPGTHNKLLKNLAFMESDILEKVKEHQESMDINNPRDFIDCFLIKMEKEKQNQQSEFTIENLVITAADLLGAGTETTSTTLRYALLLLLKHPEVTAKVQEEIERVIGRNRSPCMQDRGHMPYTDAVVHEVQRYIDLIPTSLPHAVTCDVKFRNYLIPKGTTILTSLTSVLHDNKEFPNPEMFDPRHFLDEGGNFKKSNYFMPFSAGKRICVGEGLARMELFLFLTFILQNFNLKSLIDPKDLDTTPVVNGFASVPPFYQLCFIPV
Sequence of Cytochrome P450 2C9 (P11712 whole entry): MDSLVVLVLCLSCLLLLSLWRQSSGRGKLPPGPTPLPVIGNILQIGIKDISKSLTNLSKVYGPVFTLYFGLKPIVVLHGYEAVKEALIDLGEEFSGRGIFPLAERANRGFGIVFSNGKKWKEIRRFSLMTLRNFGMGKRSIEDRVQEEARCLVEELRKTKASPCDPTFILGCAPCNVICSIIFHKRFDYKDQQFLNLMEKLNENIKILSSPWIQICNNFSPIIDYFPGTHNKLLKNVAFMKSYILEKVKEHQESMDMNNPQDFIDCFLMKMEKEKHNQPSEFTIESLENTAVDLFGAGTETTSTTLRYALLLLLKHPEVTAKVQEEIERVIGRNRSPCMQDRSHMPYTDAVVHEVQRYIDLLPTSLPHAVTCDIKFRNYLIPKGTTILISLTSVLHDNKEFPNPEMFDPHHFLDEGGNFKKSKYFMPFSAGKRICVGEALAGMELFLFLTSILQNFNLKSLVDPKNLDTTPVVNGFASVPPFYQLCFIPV

Consider `O=C(/C=C/c1c2ccccc2cc2ccccc12)c1ccc[nH]1`, for which the IC50 in experiment [1] is 12 µM; in experiment [2] it was greater than 20 µM; in experiment [3], greater than 20 µM; in experiment [4], greater than 20 µM; in experiment [5], greater than 20 µM; in experiment [6], greater than 20 µM. Also, the IC50 in experiment [7] is greater than 20 µM.

Regarding `COc1ccc(/C=C/C(=O)c2ccc[nH]2)cc1`, the half-maximal inhibitory concentration (IC50) in experiment [1] was 16 µM; in experiment [2], greater than 20 µM; in experiment [3], 11.8 µM; in experiment [4], greater than 20 µM; in experiment [5], greater than 20 µM; in experiment [6] it was greater than 20 µM. The compound also displayed an IC50 in experiment [7] greater than 20 µM.

On to `O=C(/C=C/c1ccccc1F)c1ccc[nH]1`, for which the IC50 in experiment [1] was 16 µM; in experiment [2], greater than 20 µM; in experiment [3], 2.2 µM; in experiment [4] it was greater than 20 µM; in experiment [5], greater than 20 µM; in experiment [6] it was greater than 20 µM. Moreover, in experiment [7], it took 2.7 µM to reach half-maximal inhibition (IC50).

In the case of `COc1cc(/C=C/C(=O)c2ccc[nH]2)cc(OC)c1`, the IC50 in experiment [1] is 15 µM; in experiment [2], greater than 20 µM; in experiment [3], 9 µM; in experiment [4], greater than 20 µM; in experiment [5], greater than 20 µM; in experiment [6], 6.1 µM. The compound also showed an IC50 in experiment [7] greater than 20 µM.

On to `COc1ccc(/C=C/C(=O)c2ccc[nH]2)c(OC)c1`, for which the half-maximal inhibitory concentration (IC50) in experiment [1] is 11 µM; in experiment [2] it was greater than 20 µM; in experiment [3], 10 µM; in experiment [4], greater than 20 µM; in experiment [5] it was greater than 20 µM; in experiment [6], 11.8 µM. Moreover, the IC50 in experiment [7] is greater than 20 µM.

`O=C(/C=C/c1cc([N+](=O)[O-])ccc1Cl)c1ccc[nH]1`: the IC50 in experiment [1] was 12 µM; in experiment [2] it was greater than 20 µM; in experiment [3], 10.9 µM; in experiment [4] it was greater than 20 µM; in experiment [5], greater than 20 µM; in experiment [6], greater than 20 µM. For the same compound, the IC50 in experiment [7] is greater than 20 µM.

For the compound `O=C(/C=C/c1ccc2c(c1)OCO2)c1ccc[nH]1`, the IC50 in experiment [1] was 14 µM; in experiment [2], greater than 20 µM; in experiment [3], 9.7 µM; in experiment [4], greater than 20 µM; in experiment [5], greater than 20 µM; in experiment [6], 5.8 µM. The compound further gave an IC50 in experiment [7] greater than 20 µM.

For `COc1cccc(/C=C/C(=O)c2ccc[nH]2)c1OC`, the IC50 in experiment [1] was 16 µM; in experiment [2] it was greater than 20 µM; in experiment [3] it was 9.2 µM; in experiment [4], greater than 20 µM; in experiment [5], greater than 20 µM; in experiment [6] it was 5.2 µM. Also, the IC50 in experiment [7] was greater than 20 µM.

As for `O=C(/C=C/c1cccc(Br)c1)c1ccc[nH]1`, the IC50 in experiment [1] was 14 µM; in experiment [2], greater than 20 µM; in experiment [3] it was greater than 20 µM; in experiment [4] it was greater than 20 µM; in experiment [5] it was greater than 20 µM; in experiment [6], greater than 20 µM. Further, the IC50 in experiment [7] was 13 µM.

In the case of `COc1ccc(/C=C/C=C/C(=O)c2ccc[nH]2)cc1`, the IC50 in experiment [1] is 18 µM; in experiment [2], greater than 20 µM; in experiment [3], 13 µM; in experiment [4] it was greater than 20 µM; in experiment [5], greater than 20 µM; in experiment [6], greater than 20 µM. Moreover, the IC50 in experiment [7] is greater than 20 µM.

Turning to `COc1cccc(OC)c1/C=C/C(=O)c1ccc[nH]1`, the concentration for half-maximal inhibition (IC50) is 18 µM in experiment [1]; greater than 20 µM in experiment [2]; 10 µM in experiment [3]; greater than 20 µM in experiment [4]; greater than 20 µM in experiment [5]; 10.8 µM in experiment [6]. The concentration for half-maximal inhibition (IC50) in experiment [7] is greater than 20 µM.

Regarding `CCc1ccc(/C=C/C(=O)c2ccc[nH]2)o1`, the IC50 is 17 µM in experiment [1]; greater than 20 µM in experiment [2]; 2.5 µM in experiment [3]; greater than 20 µM in experiment [4]; greater than 20 µM in experiment [5]; greater than 20 µM in experiment [6]. In experiment [7], this compound registered an IC50 of 9.2 µM.

Regarding `O=C(/C=C/C=C/c1ccccc1)c1ccc[nH]1`, the IC50 was 12 µM in experiment [1]; greater than 20 µM in experiment [2]; 10.5 µM in experiment [3]; greater than 20 µM in experiment [4]; greater than 20 µM in experiment [5]; greater than 20 µM in experiment [6]. The compound also yielded an IC50 in experiment [7] greater than 20 µM.

Consider `COc1ccc(/C=C/C(=O)c2ccc[nH]2)cc1Br`, for which the IC50 in experiment [1] is 13 µM; in experiment [2], greater than 20 µM; in experiment [3], 17 µM; in experiment [4] it was greater than 20 µM; in experiment [5] it was greater than 20 µM; in experiment [6], greater than 20 µM. This compound came in with an IC50 in experiment [7] greater than 20 µM.

For the compound `COc1cc(/C=C/C(=O)c2ccc[nH]2)cc(OC)c1OC`, the IC50 in experiment [1] is 14 µM; in experiment [2], greater than 20 µM; in experiment [3], 15 µM; in experiment [4], greater than 20 µM; in experiment [5], greater than 20 µM; in experiment [6], greater than 20 µM. The compound further yielded a half-inhibitory concentration (IC50) in experiment [7] greater than 20 µM.

Consider `CN(C)c1ccc(/C=C/C(=O)c2ccc[nH]2)cc1`, for which the IC50 in experiment [1] is 13 µM; in experiment [2], greater than 20 µM; in experiment [3], 12.5 µM; in experiment [4], greater than 20 µM; in experiment [5] it was greater than 20 µM; in experiment [6] it was greater than 20 µM. In addition, in experiment [7], the IC50 was greater than 20 µM.

Turning to `O=C(O)c1ccc(/C=C/C(=O)c2ccc[nH]2)cc1`, the IC50 in experiment [1] was 18 µM; in experiment [2], greater than 20 µM; in experiment [3], greater than 20 µM; in experiment [4], greater than 20 µM; in experiment [5] it was greater than 20 µM; in experiment [6] it was greater than 20 µM. Besides, the IC50 in experiment [7] is greater than 20 µM.

For `O=C(/C=C/c1ccc(Br)cc1)c1ccc[nH]1`, the IC50 was 18 µM in experiment [1]; greater than 20 µM in experiment [2]; 13.2 µM in experiment [3]; greater than 20 µM in experiment [4]; greater than 20 µM in experiment [5]; greater than 20 µM in experiment [6]. The compound further registered a half-maximal inhibitory concentration (IC50) in experiment [7] of 8.5 µM.

On to `O=C(/C=C/c1cccc(Cl)c1)c1ccc[nH]1`, for which the IC50 in experiment [1] was 14 µM; in experiment [2] it was greater than 20 µM; in experiment [3], 12 µM; in experiment [4], greater than 20 µM; in experiment [5] it was greater than 20 µM; in experiment [6] it was 16 µM. In addition, the IC50 in experiment [7] came out at 1.5 µM.

In the case of `COc1cccc(/C=C/C(=O)c2ccc[nH]2)c1`, the IC50 was 11 µM in experiment [1]; greater than 20 µM in experiment [2]; 1.5 µM in experiment [3]; greater than 20 µM in experiment [4]; greater than 20 µM in experiment [5]; 6.2 µM in experiment [6]. Also, in experiment [7], half-maximal inhibition (IC50) required 5.2 µM.
